One data set deals with Apis mellifera. The conditions noted are these: acute, mortality.
For the next data set, the system named is Bibionidae. The conditions noted are these: chronic/long-term; duration: 23 days; reproduction.
The test system of another data set is Colinus virginianus. The conditions noted are these: acute, oral, mortality.
The subject of a further data set is Coturnix japonica. The conditions noted are these: reproduction developmental.
Another data set has as its system Hypoaspis aculeifer. The conditions noted are these: chronic/long-term; reproduction.
A further data set concerns Oncorhynchus mykiss. The following applies: acute; duration: 96 hours; mortality.
The next data set has as its system Pimephales promelas. The following applies: chronic/long-term; duration: 28 days.
The next data set deals with Tagia sp. The conditions noted are these: chronic/long-term; reproduction.
A further data set deals with Typhlodromus pyri. Description: LR50; higher = less toxic. The conditions noted are these: mortality.

Here are results for one compound from EPA's ToxValDB 9.5 (doi:10.2903/j.efsa.2020.6232).

Usually NOAEL stands for the highest dose or exposure tested at which no adverse effect was seen. What is called LC50 is the concentration lethal to half of the exposed cells or organisms. On to `Cc1ccc(-c2c(Cl)nc(C#N)n2S(=O)(=O)N(C)C)cc1`, for which the LD50 was 9.52 µg/piece in the data set with Apis mellifera (dermal); above 31.8 µg/piece in the data set with Apis mellifera (oral, unspecified); above 1280 mg/kg-day in the data set on Colinus virginianus (diet); above 2000 mg/kg-day in the data set with Colinus virginianus; above 5000 mg/kg-day with Rattus norvegicus (acute, oral, mortality). For the same compound, the NOEC came out at 0.0117 mg/L in the data set with Bibionidae, 18.7 mg/kg in the data set on Hypoaspis aculeifer, 0.09 mg/L in the data set with Pimephales promelas and 2 mg/kg in the data set with Tagia sp.. The no-observed-adverse-effect level (NOAEL) came out at 151 mg/kg-day in the data set on Coturnix japonica; 17 mg/kg-day in the data set on Rattus norvegicus (chronic, duration: 2 years, organ weight); 89 mg/kg-day in the data set on Rattus norvegicus (reproduction developmental, body weight); 29.5 mg/kg-day with Rattus norvegicus (subchronic, duration: 90 days, oral, organ weight). In the data set on Oncorhynchus mykiss, this compound displayed an LC50 above 0.107 µg/mL. Also, the LR50 in the data set with Typhlodromus pyri (acute, duration: 10 days) came out at 256 g/ha; in the data set with Typhlodromus pyri (not reported), 80 g/ha.
